The values below come from patent publication US20250057808A1, “COMPOSITION COMPRISING BETA LACTAM FOR TREATING ALCOHOL DEPENDENCE AND ALCOHOL ASSOCIATED DISEASES OR CONDITIONS” (Temple University of the Commonwealth System of Higher …, priority 2023, published 2025).

“Also recorded” adds a separate entry of the source. Like-named read-outs stand apart in the source and are kept apart here.

The conditions of series [1]: cited from earlier work.
For series [2], the system named is fat content in the liver. In words: Liver Oil Red O staining (fat content). In kind it is in vivo, P rats. Conditions: MC-100093 50 mg/kg or ceftriaxone 200 mg/kg i.p. 5 days, control, ethanol, ethanol-CEF groups. The protocol:
To measure the fat content in the liver sections, we used Oil Red O (Sigma, CAS Number 1320-06-5) staining on 10 μm thick formalin-fixed liver sections and placed in slides for further staining. The slides were stained with freshly prepared Oil Red O working solution 15 minutes then rinsed with 60% isopropanol. Slides were then rinsed with distilled water and mounted in aqueous mounting media and prepared for imaging. The degree of Oil Red O staining was determined at 20× magnification using a color video camera attached to an Olympus VS120 slide scanning microscope. Olympus OlyVIA software was used to analyze the images. The lipid droplets were quantified using Image J pro (NIH). Data are presented as the mean+SEM of the Oil Red O staining for each group.
(§1) All statistical analyses were conducted with Graphpad Prism software, with p-values of 0.05 or less being statistically significant. We performed a two-way (mixed model) ANOVA followed by Bonferroni multiple comparison post-hoc test to analyze 24 h ethanol consumption, 24 h water consumption, and daily body weight. For the Western blot and oil red O staining analysis, we performed one-way ANOVA with Newman-Keuls as a post hoc multiple comparison test to measure differences between groups as a percentage (relative to control values).

For series [3] the following is noted: cited from earlier work. This is another data set of the same source.
The test system of series [4] is RAGE. In words: Western blot RAGE in subregions of mPFC and NAc. In kind it is in vivo, Male P rats. Here is the method:
All P rats were euthanized by CO2 inhalation and decapitated with a guillotine 24 hours after the final i.p. injection was administered on Day 6 of Week 6. Brains were removed and immediately frozen on dry ice and stored at −80° C. The mPFC subregions (infralimbic cortex and prelimbic cortex) and NAc subregions (core and shell) were dissected using a cryostat machine kept at −20° C. Surgical blades were used to dissect all brain regions following visualized landmarks using the stereotaxic coordinates provided by Paxinos and colleague's rat brain stereotactic atlas. All brain regions were stored in −80° C. Western Blot analyses.
Western blot was performed to determine the expression of BDNF, TNF-α, RAGE, HMGβ-1, and β-tubulin in the subregions of mPFC and NAc as preformed in previous studies.
Brain samples were lysed with a lysing buffer containing protease inhibitors. The amount of protein in each sample was quantified using a detergent compatible protein assay (Bio-Rad, Hercules, CA, USA). Polyacrylamide gels (10%) were loaded with the lysate mixture, and proteins were separated using gel electrophoresis for 1 hour. Proteins were then transferred from the gels onto Polyvinylidene difluoride (PVDF) membranes (BioRad). After transfer, membranes were incubated for 30 minutes in a mixture of nonfat milk in 1×Tris-buffered saline with Tween-20 (TBST) at room temperature. Membranes were then incubated at 4° C. for 24 hours with primary antibodies: anti-rabbit BDNF (1:1000, Abeam, #ab108319), anti-rabbit TNF-α (1:500, Abeam, #ab9739), anti-rabbit HMGβ-1 (1:500, Abeam, #ab18256), and anti-rabbit RAGE (1:1000, Abeam, #ab37407). Anti-mouse-β-tubulin (1:1000, Cell Signaling Technology, #D71G9) was used as a loading control antibody. After incubating for 24 hours, secondary antibody such as donkey anti-rabbit (1:4000, Invitrogen, #31458) or anti-mouse (1:4000, Cell Signaling, #7076S) was added to the membrane for 1 hour at room temperature. The membranes were then washed with 1×TBST three times for 5 minutes each and then dried. Membranes were then incubated in chemiluminescent reagents (Super Signal West Pico, Pierce Inc.) for 2 minutes. Blot images were developed using ChemiDoc. Imaging System and ImageJ software version 1.53a were used to quantify and analyze the expression of BDNF, TNF-α, RAGE, HMGβ-1, and β-tubulin.
The data for the water/saline control group were expressed as 100% based on the values corresponding to the ethanol/saline and ethanol/MC-100093 groups for each set of blotting. Thus, the expression of selected proteins for each group (ethanol/saline group or ethanol/MC-100093 group) was calculated relative to the water/saline control group being set to 100%.
Statistical analyses were performed using GraphPad Prism Version 10. Two-way repeated measures ANOVA followed by Bonferroni post-hoc tests were used to compare water and ethanol intake, and body weight, amongst water group, ethanol/saline group and ethanol/MC-100093 group. A one-way ANOVA test was performed to compare the expression of the studied proteins in selected brain regions in water/saline, ethanol/saline and ethanol/MC-100093 groups. Statistical significance was determined by a p-value of or less than 0.05.

Series [5] is described as follows: Ethanol drinking paradigm, three-bottle choice (MC-100093 50 mg/kg vs ceftriaxone 200 mg/kg). It is filed as in vivo, P rats. Here is the method:
P rats were received from Indiana University School of Medicine (Indianapolis, IN, USA), and were housed in a 21° C. on a 12/12 h light/dark cycle-maintained room where they had free access to water and food. All experimental procedures were approved by the Institutional Animal Care and Use Committee (IACUC) of The University of Toledo, in accordance with the guidelines governing the use of animals in research of the National Institutes of Health as described in the Guidefor the Care and Use of Laboratory Animals.
We used an ethanol drinking paradigm as described previously by Alhaddad, et al. (2014). Briefly, animals started the experimental drinking procedure at age of 90 days. The animals had five weeks of exposure to continuous three-bottle choice drinking, 0%, 15% and 30%, v/v ethanol in water, available concurrently. Daily measurement of ethanol intake was performed (g of ethanol intake/kg of body weight/day). We measured the baseline ethanol drinking by average the intake during the last three weeks. Three groups of P rats (n=8-9/group) exposed to the five weeks ethanol exposure. At week 6, rats in each group received daily intraperitoneal injection of either MC-100093 at dose of 50 mg/kg (Ethanol-MC group), Ceftriaxone at dose of 200 mg/kg (Ethanol-CEF group, which also serves as positive control), or equivolume of saline vehicle (Ethanol group) for five days. This paradigm results in pharmacologically relevant blood alcohol concentration (50-200 mg %). Following the criteria for the development of ethanol dependence, rats whose average ethanol intake <4 g/kg/day were excluded from the study. Beside the ethanol exposed groups, another group of P rats (n=8) exposed to only water and food throughout the exposure procedures (control group).
as §1

[6] abbreviates: 100 mg/kg i.p., compared to ethanol/saline group.

Regarding `C[C@@H](O)[C@H]1C(=O)N[C@@H]1[C@@H](C)C(=O)N1CCN(C)CC1` [MC-100093], in series [1] (after intraperitoneal (i.p) injection), the Brain/plasma ratio is listed as 14%. In addition, the “Oral bioavailability (in words)” value in series [1] (following oral administration) is “orally bioavailable; also recorded: high oral bioavailability; also recorded: some bioavailability”. Further, the In vivo half-life in series [1] (intraperitoneal route) was 4.2 h. For the same compound, in series [1] (oral route), the In vivo half-life was 5.26 h. For the same compound, in series [1] (rat, in vivo), the Oxidative metabolism result is “no oxidative metabolism”. The “Oral bioavailability (F)” value in series [1] (rats) is 28%. Moreover, in series [2], the “Liver fat content (Oil Red O stained fat droplets)” value is “no significant difference in fat content between control, ethanol-MC, and ethanol-CEF groups; also recorded: significantly higher fat droplet content in ethanol group (p<0.05) compared to control, ethanol-MC or ethanol-CEF groups; also recorded: alleviated the liver steatosis”. For the same compound, the Aqueous solubility result in series [3] is recorded as “high aqueous solubility”. In addition, in series [4] (setting [6]), the “Decrease in RAGE expression in the IL” value came out at 14%, the “Decrease in RAGE expression in the NAc core” value was 12%, the “RAGE expression in the NAc shell” value is “decreased RAGE expression” and the “RAGE expression in the PL” value was “decreased RAGE expression”. The “RAGE expression in subregions of mPFC and NAc (summary)” value in series [4] (post-treatment with MC-100093 100 mg/kg i.p., 100 mg/kg) is reported as “normalized RAGE expression; also recorded: attenuated ethanol-induced increase in receptor for advanced glycation end products (RAGE)”. The “Body weight (grams)” value in series [5] (MC-100093 50 mg/kg i.p. or ceftriaxone 200 mg/kg i.p. 5 days) was “Neither MC-100093 (50 mg/kg, i.p.) nor Ceftriaxone (200 mg/kg, i.p.) treatment has significant effect; also recorded: no significant effects”. For the same compound, the “Water intake (mL/day)” value in series [5] (MC-100093 50 mg/kg i.p. or ceftriaxone 200 mg/kg i.p. 5 days, vs Ethanol-Saline group (MC-100093: at day 5 only)) is “significant increase in water consumption”. In series [5] (P rats after 5 wk ethanol, MC-100093 50 mg/kg i.p. or ceftriaxone 200 mg/kg i.p. daily 5 days, vs Ethanol-Saline group), the “Ethanol consumption (g/kg of average body weight/24 hr)” value is “significant decrease in ethanol consumption from day 1 through day 5; also recorded: significantly reduced ethanol consumption from day 2 through day 5; also recorded: attenuated ethanol drinking behavior; also recorded: attenuated moderately ethanol intake as compared to ceftriaxone”.
